Reference: patent US10017463B2, “Inhibitors of deubiquitinating proteases” (Brandeis University, priority 2014, dated 2018)
Like-named read-outs stand apart in the source and are kept apart here. Values belong to the molecule of their own block, whether it stands above or below them.

Key:
G76VUb-GFP in COS1 cells = assay: UbG76V-GFP proteasome assay in COS1 cells; type: cell-based; details: COS1, 8 h
Procedure: COS1 cells at approx. 75% confluence in a 48 well plate were transiently transfected with a plasmid encoding G76VUb-GFP using Mirus 2020 reagent. After this time media with either compound in DMSO or 1% DMSO was added to the cells and the cells were incubated for 8 h. After this time, cells were trypsinized, diluted with 1% FBS in PBS (FACS buffer) then centrifuged at 700 g. After this time cells on ice were treated with FACS buffer containing propidium iodide (0.05 mg/mL). The GFP (indicating proteasome activity) and red fluorescence (dye exclusion showing acute toxicity) were subsequently measured by FACS.

cathepsin C = target: T1, cathepsin C (Mus musculus, UniProt P97821); assay: Cathepsin C inhibition (Gly-Phe-AMC); type: biochemical; details: for EC50 for cathepsin C inhibition: 30 min preincubation, substrate 150 μM
T1 construct: Mouse full length cathepsin C was from RnD systems; purchased RnD systems (Minneapolis, Minn.)
Procedure: Panel A is a plot showing the KM calculation for cathepsin C and substrate, Gly-Phe-AMC. Panel B is a plot showing Cathepsin C was incubated with the stated compound for 30 min prior to addition of substrate and residual activity was measured. Panel C is a plot showing the EC50 values calculated from Panel B.
Cathepsin C is an enzyme important in inflammation. […] The assay was undertaken by incubating the enzyme in the presence of compound for 30 min, then adding substrate (150 μM; kM=75 μM) and measuring residual activity. […] TCM41, TCM42, TCM58, TCM43, and TCM97 (FIG. 12). […] Furthermore, substitution in the 3-position of the aniline function appeared to be more favored than 4-substitution (TCM97 vs TCM41). However substitution on the phenyl ester function was much less important for inhibition, with chloro, fluoro and proton all giving similar inhibition potencies.

USP9x = target: T2, USP9x (Homo sapiens, UniProt Q93008); assay: HA-Ubiquitin-Vinylsulfone activity profiling in K562 lysates; type: biochemical
T2 construct: Lysate labeling assay on untransfected cells; endogenous in cells; host or cells: K562
Procedure: Panel B is an image of an immunoblot showing the titration of TCM23 and TCM28 in K562 lysates. Panel C is a plot showing the quantitation of band corresponding to USP9x in panel B. Panel D is an image of an immunoblot showing the titration of WP1130 in K562 lysates. Panel E is a plot showing the quantification of the efficacy of ITCs for the inhibition of USP9x in K562 lysates (see also Table 2).
[…] After this time HA-Ub-VS (1.5 μM) was added and incubated for 15 min. After this time reaction mixture (15 μL) was removed and quenched in 2× (final concentration) reducing Laemeli buffer. The reaction mixtures were heated to 37° C. for 10 min prior to analysis by western blot for HA.

[1] = tested on: DUBs other than USP9x, most notably UCHL5; assay: HA-Ubiquitin-Vinylsulfone activity profiling, other DUBs; type: biochemical
Procedure: Lysate labeling assay on untransfected cells (1.5 mg/mL lysate lysed using a Dounce homogenizer, 10 strokes, in 75 mM potassium phosphate pH 7.6, 150 mM NaCl, 0.75 mM BME) was run with the stated concentration of inhibitor (or 1% DMSO control) for 30 min. After this time HA-Ub-VS (1.5 μM) was added and incubated for 15 min. After this time reaction mixture (15 μL) was removed and quenched in 2× (final concentration) reducing Laemeli buffer. The reaction mixtures were heated to 37° C. for 10 min prior to analysis by western blot for HA. […] EC50s calculated by this method were in agreement with those found in the HA-blot.

BaF3/p210 cells [2] = assay: Proliferation assay (Alamar Blue), BaF3/p210; type: cell-based, murine
From the text: This cell line consists of engineered murine leukemia cells that ectopically express Bcr-Abl. Parent BaF3 cells require exogenous interleukin 3 (IL3) because IL3 stimulates expression of MCL1, which is required for survival. However, BaF3/p210 cells require no exogenous interleukins but need Bcr-Abl for survival.

DUBs = assay: Cy5-Ub-VME activity profiling of treated BaF3/p210 cells; type: cell-based, murine; details: TU71 for 2.5 h or 4 h
Procedure: FIG. 9 has two panels (A and B) depicting data showing that TUs inhibit DUBs in cells. BaF3/p210 cells were incubated with the stated concentration of compound for 4 h. After this time cells were lysed using beads, lysates were normalized, then exposed to Cy5-Ub-VME for 5 min. After quenching, lysates were resolved by SDS-PAGE, analyzed on typhoon, then stained by Coomassie. Panel A is an image of the SDS-PAGE gel visualized via Typhoon imager. Panel B is an image of the SDS PAGE gel stained with Coomassie.
(§1) Panel A is the chemical structure of TU71. Panel B is an image of an immunoblot showing a K562 cell was treated with TU71 for 15 min at which time HAUb-VS was added. After an additional 15 min, aliquots were quenched in reducing loading buffer and analyzed by SDS-PAGE and HA blot. […] BaF3/p21 0 cells were treated with TU71 for 2.5 h (Panel C) or 4 h (Panel D). Cells were harvested, lysed and incubated (0.7 mg/mL protein) with 250 nM Cy5-UbVME for 5 min at 37° C. […] Panel E is an image of an immunoblot showing BaF3/p210 cells were incubated with TU71 for 4 h. The cells were harvested, lysed, analyzed by SDS-PAGE and immunoblotted as indicated. “cPARP” indicates the caspase cleavage of product of PARP and is indicative of apoptosis. Panel F is a bar graph showing data representative of mean±range of two independent experiments, one performed in duplicate of the blot depicted in Panel E.
The increased promiscuity of the inhibitors when the experiment is carried out in cells likely stems from the increased assay time (4 h vs 20 min) coupled with the slow on rates of the inhibitors and their targets.

MCL-1 = MCL-1 immunoblot in BaF3/p210 cells; type: cell-based, murine; details: 4 h
Procedure: as §1

BaF3/p210 cells [3] = assay: Apoptosis (cPARP) in BaF3/p210 cells; type: cell-based, murine; details: 4 h
Procedure: as §1

3T3 = assay: Proliferation assay, 3T3; details: read-out: EC50 3T3; WP1130, time not stated
HeLa = assay: Proliferation assay, HeLa; details: read-out: EC50 HeLa
Procedure: (§2) Proliferation assays for adherent cells were conducted by plating cells at 5%-10% confluence in 96 well plates together with compound or 0.1% DMSO. Cells were allowed to grow for 48 h and then Alamar Blue® was added and number of cells was measured by fluorescence on a microplate reader.

MCF7 = assay: Proliferation assay, MCF7; details: read-out: EC50 MCF7
Procedure: as §2

B16-F10 = assay: Proliferation assay, B16-F10; details: read-out: EC50 B16-F10; WP1130, time not stated
[4] = HA-Ub-VS profiling, values in text, read-out: EC50 for USP9x
[5] = inhibition of USP9x in K562 lysates, data from FIG. 1, read-out: EC50

T1 sequence (P97821 231-393 limits assumed): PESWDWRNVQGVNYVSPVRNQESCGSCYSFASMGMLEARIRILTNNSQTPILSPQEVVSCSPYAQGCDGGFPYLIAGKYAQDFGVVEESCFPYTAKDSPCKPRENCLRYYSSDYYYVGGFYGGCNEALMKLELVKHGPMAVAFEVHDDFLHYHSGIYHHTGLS
T1 sequence (P97821 25-134 limits assumed): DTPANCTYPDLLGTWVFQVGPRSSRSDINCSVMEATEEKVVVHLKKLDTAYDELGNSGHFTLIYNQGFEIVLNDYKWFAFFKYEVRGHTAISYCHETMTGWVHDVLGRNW
T1 sequence (P97821 394-462 limits assumed): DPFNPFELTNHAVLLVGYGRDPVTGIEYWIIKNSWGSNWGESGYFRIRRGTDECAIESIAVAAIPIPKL
T2 sequence (Q93008 whole entry): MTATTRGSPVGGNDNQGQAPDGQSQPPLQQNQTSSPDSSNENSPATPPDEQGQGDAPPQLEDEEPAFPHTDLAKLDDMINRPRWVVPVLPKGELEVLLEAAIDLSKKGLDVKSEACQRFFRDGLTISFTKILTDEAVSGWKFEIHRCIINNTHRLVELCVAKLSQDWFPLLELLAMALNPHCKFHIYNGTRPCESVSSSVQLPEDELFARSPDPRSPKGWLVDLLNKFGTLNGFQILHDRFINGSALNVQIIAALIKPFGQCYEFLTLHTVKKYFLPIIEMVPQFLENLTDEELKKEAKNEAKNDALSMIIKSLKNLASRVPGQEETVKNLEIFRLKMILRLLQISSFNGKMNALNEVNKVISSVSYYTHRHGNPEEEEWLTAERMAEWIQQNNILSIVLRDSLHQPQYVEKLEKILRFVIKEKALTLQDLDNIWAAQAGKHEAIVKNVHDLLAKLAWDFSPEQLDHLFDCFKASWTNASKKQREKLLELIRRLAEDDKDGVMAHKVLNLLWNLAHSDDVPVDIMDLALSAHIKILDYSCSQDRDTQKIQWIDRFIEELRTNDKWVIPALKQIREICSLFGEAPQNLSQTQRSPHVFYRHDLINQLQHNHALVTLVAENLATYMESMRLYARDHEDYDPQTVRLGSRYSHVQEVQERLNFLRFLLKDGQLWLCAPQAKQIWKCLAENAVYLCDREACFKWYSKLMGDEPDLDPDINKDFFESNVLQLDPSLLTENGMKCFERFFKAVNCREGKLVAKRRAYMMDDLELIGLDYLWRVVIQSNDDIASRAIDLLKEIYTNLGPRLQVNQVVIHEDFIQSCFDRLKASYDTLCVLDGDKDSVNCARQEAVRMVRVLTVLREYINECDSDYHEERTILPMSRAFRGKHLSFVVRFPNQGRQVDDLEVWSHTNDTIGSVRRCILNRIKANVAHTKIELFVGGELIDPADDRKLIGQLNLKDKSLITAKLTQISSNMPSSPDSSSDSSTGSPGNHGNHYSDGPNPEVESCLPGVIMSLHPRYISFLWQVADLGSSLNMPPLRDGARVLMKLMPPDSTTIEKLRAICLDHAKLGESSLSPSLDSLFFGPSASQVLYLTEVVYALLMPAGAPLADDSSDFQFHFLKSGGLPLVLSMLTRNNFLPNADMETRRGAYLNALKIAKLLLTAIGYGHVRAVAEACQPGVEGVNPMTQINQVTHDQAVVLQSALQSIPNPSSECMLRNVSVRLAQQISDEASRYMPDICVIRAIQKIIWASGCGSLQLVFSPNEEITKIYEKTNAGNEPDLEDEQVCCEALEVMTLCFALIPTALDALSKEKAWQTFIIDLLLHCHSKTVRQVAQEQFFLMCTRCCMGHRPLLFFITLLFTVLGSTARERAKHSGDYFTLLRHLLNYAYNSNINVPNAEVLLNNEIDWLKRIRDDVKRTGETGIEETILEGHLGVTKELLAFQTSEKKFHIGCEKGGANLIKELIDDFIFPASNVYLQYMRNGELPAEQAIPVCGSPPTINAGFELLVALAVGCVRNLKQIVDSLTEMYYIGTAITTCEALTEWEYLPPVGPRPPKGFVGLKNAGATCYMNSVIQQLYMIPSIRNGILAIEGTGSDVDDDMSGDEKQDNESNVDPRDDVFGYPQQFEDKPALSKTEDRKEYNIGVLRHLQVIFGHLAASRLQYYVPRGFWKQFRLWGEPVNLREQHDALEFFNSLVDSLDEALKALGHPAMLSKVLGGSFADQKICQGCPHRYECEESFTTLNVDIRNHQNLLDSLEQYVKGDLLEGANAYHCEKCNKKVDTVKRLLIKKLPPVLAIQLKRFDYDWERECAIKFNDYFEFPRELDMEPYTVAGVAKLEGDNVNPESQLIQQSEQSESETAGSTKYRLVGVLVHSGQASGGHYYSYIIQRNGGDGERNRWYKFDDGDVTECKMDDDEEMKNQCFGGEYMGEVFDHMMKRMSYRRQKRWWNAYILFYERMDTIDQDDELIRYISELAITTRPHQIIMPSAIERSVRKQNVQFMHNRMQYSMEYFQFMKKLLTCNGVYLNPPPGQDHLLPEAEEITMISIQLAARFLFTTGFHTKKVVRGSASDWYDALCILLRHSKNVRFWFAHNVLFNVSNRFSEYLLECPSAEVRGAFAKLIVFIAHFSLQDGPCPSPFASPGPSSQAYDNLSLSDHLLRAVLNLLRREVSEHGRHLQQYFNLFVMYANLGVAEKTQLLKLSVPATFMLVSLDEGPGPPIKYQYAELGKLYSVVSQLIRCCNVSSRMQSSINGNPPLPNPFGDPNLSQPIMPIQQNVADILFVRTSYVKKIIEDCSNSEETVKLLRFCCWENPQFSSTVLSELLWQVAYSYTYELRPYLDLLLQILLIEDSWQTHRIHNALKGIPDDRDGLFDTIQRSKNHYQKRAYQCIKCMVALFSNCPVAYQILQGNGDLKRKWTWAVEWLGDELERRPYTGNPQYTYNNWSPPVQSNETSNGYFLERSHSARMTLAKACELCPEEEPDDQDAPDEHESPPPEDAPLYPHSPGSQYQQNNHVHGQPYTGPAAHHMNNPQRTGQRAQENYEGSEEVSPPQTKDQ

EC50 for cathepsin C inhibition (cathepsin C): low micromolar range
SMILES: CC(C)(C)OC(=O)NCc1ccc(N(C(=S)Oc2ccc(Cl)cc2)C(=S)Oc2ccc(Cl)cc2)cc1 [TCM40]

EC50 for cathepsin C inhibition (cathepsin C): low micromolar range
SMILES: CC(C)(C)OC(=O)NCc1ccc(N(C(=S)Oc2ccccc2)C(=S)Oc2ccccc2)cc1 [TCM41]

EC50 for cathepsin C inhibition (cathepsin C): low micromolar range
SMILES: Cc1ccc(OC(=S)N(C(=S)Oc2ccc(C)cc2)c2ccc(CNC(=O)OC(C)(C)C)cc2)cc1 [TCM42]

relative potency as cathepsin C inhibitor (cathepsin C): most potent inhibitor
EC50 for cathepsin C inhibition (cathepsin C): low micromolar range
SMILES: CN(C)c1ccc(N(C(=S)Oc2ccccc2)C(=S)Oc2ccccc2)cc1 [TCM43]

EC50 for cathepsin C inhibition (cathepsin C): low micromolar range
SMILES: CC(C)(C)OC(=O)NCc1ccc(N(C(=S)Oc2ccc(F)cc2)C(=S)Oc2ccc(F)cc2)cc1 [TCM58]

EC50 for cathepsin C inhibition (cathepsin C): low micromolar range
SMILES: CC(C)(C)OC(=O)NCc1cccc(N(C(=S)Oc2ccccc2)C(=S)Oc2ccccc2)c1 [TCM97]

EC50 (USP9x; [4]): 3 µM
EC50 (HeLa): 3 µM
EC50 (MCF7): 3 µM
EC50 (B16-F10): 3 µM
SMILES: CCC[C@H](NC(=O)/C(C#N)=C/c1cccc(Br)n1)c1ccccc1 [WP1130, reference compound]
inhibition of other USPs ([1]; conditions as for USP9x EC50): also inhibited
EC50 (3T3): 3 µM

Continued, molecule first:

SMILES: CC(C)C[C@H](NC(=O)[C@H](Cc1ccccc1)NC(=O)c1cnccn1)B(O)O [Bortezomib, reference compound]
GFP signal (G76VUb-GFP in COS1 cells): two-fold increase in GFP signal

SMILES: Cc1cccc(N=C=S)c1 [TU70]
EC50 (USP9x; [4]): > 50 µM
EC50 (USP9x; [5]): 61 µM

SMILES: CC(C)(C)OC(=O)NCCc1cccc(N=C=S)c1 [TU71]
EC50 (USP9x; [4]): 6 to 12 µM
EC50 (USP9x; K562 treated with TU71 for 15 min, then HAUb-VS 15 min (FIG. 13), read-out: EC50 for USP9x inhibition): 20 ± 1 µM
EC50 (USP9x; [5]): 9 µM
inhibition of other DUBs other than USP9x ([1]; at 85 μM): weak inhibition
inhibition of other DUBs ([1]; below 25 μM): little inhibition
growth inhibition of BaF3/p210 cells (BaF3/p210 cells [2]): did not show a significant growth inhibition until very high concentrations
DUB inhibition in cells (DUBs): inhibits DUBs
level of MCL-1 (MCL-1): decreases the level
apoptosis (BaF3/p210 cells [3]): initiates apoptosis

SMILES: N#Cc1cc(F)cc(N=C=S)c1 [TU74]
EC50 (USP9x; [5]): 22 µM

SMILES: S=C=Nc1ccccc1 [TU76]
EC50 (USP9x; [4]): > 50 µM
EC50 (USP9x; [5]): 131 µM

SMILES: O=[N+]([O-])c1ccc(N=C=S)cc1 [TU79]
EC50 (USP9x; [5]): 11 µM

SMILES: Fc1cccc(N=C=S)c1 [TU81]
EC50 (USP9x; [5]): 20 µM
